Assays:
Type in all cases: cell-based, human
GALC mRNA = assay: qPCR of GALC transcripts in GM03813 fibroblasts; conditions: for Selectivity GALC /FL-SMN2: EC50 of GALC divided by EC1.5× of FL-SMN2; for EC50: Homo sapiens, Fibroblast, GM03813 fibroblasts, 24 h, 50% total GALC mRNA reduction, 95% CI in brackets
Description: (§1) GM03813 fibroblasts, GM24468-derived MNs, NRK-49F, MDCK, CV-1, or NCMDF cells were plated at a density of 0.5 or 1.5 × 10^4, 4 × 10^4, 5 × 10^3, 5 × 10^3, 8 × 10^3, or 6 × 10^3 cells/well on 96-well plates, respectively. After approximately 6 h, the medium was added with the same volume of culture medium containing each compound at the concentration of 0.06, 0.2, 0.6, 0.2, and 6 µM. The final concentration of DMSO was adjusted to 0.1% in culture condition.
(§2) All cells were treated with above compounds for 24 h and washed once with Dulbecco’s Phosphate-Buffered Saline without Ca and Mg [D-PBS (–)] (Wako or Nakarai Tesque). In case of using GM03813 or GM24468-derived MNs, cell lysis and reverse transcription were carried out using SuperPrep Cell Lysis & RT Kit for qPCR in accordance with manufacturer’s recommendations (Toyobo, Japan). qPCR was performed using THUNDERBIRD Probe qPCR Mix (Toyobo). The final concentrations of primers and probes were adjusted to 0.4 µM and 0.15 µM, respectively (Supplementary Table 1). Cycle conditions were as follows; 95 °C for 1 min; followed by 40 cycles of denaturation at 95 °C for 15 s; annealing and elongation at 60 °C for 1 min in the ViiA7 RT-PCR system (Thermo Fisher Scientific). The copy numbers of each target were normalized to those of GAPDH.

FOXM1b = assay: qPCR of FOXM1b/c variant in GM03813 fibroblasts; conditions: for Selectivity FOXM1b /FL-SMN2: EC50 of FOXM1b divided by EC1.5× of FL-SMN2; for EC50: Homo sapiens, Fibroblast, GM03813 fibroblasts, 24 h, 50% total target mRNA reduction, 95% CI in brackets
Description: as §1, §2

Hs683 cells = assay: psychosine/sphingosine ratio in Hs683 cells by LC/MS/MS; conditions: 3000 nM, 12 days, normalized by sphingosine
Description: Hs683 cells were seeded at 1.5 × 10^5 cells/well in 6-well plates and were treated with TEC-1 or SMN-C3 for 12 days. The sample was extracted with EtOH and dried under nitrogen spray. Pellet was completely re-dissolved in EtOH using vortex and ultrasonication. The resulting sample was centrifuged at 15,000 rpm for 5 min at 4 °C. Analytes were separated from the supernatant and quantified by LC/MS/MS as reported by Boutin et al.[48].

GALC = GALC enzymatic assay from Hs683 cells; conditions: 3 days
Description: GALC enzymatic activities were quantified as reported by Wiederschain et al.[47]. Hs683 cells were seeded at 1.5 × 10^5 cells/well in 6-well plate. Cells were treated with TEC-1 (0.1, 0.3, or 1 µM) or SMN-C3 (0.03, 0.1, 0.3, or 1 µM) for 3 days. Hs683 cells were washed with D-PBS (–), collected with ultra-pure water using a cell scraper, and homogenized with homogenizers (NS-4, NS310E, Micotechnition, Japan) for 10 s. Cell lysates were centrifuged at 600 × g for 10 min at 4 °C, followed by collection of supernatants. The concentration of protein of each sample was quantified with a BCA kit. The samples were adjusted to 1 µg protein/µL (total volume 20 µL) with ultra-pure water and then 80 µL of reaction buffer (0.25% taurocholate, 0.05% oleic acid and 0.1 mol/L citrate, pH 4.4) containing 80 µM 6-Hexadecanoylamino-4-methylumbelliferone b-D-galactopyranoside (HMU-Gal, Carbosynth, UK) was added. Stop buffer (0.2 mol/L Glycine solution with NaOH, pH 10.6) was mixed with an equal amount of ethanol. The mixture was reacted at 37 °C for 20 h. […] Signals were detected by reading the fluorescence emission at 450 nm with plate reader (Enspire, PerkinElmer) excited by 385 nm. The fluorescence intensity was corrected by the value of standard substrate of 6-hexadecanoylamino-4-methylumbelliferone (Cat. No. EH10520, Carbosynth).

| Structure (SMILES) | Selectivity GALC /FL-SMN2 (GALC mRNA) | EC50 (GALC mRNA) [nM] | Selectivity FOXM1b /FL-SMN2 (FOXM1b) | EC50 (FOXM1b) [nM] | increase in psychosine compared to the control (Hs683 cells) | GALC enzymatic activity (GALC; 3000 nM) | GALC enzymatic activity compared to TEC-1 (GALC) |
| --- | --- | --- | --- | --- | --- | --- | --- |
| Cc1cn2nc(-c3nc4ccc(N5CCN(C)CC5)cc4c(=O)[nH]3)cc2c(C)n1 [TEC-1, 2-(4,6-dimethylpyrazolo[1,5-a]pyrazin-2-yl)-6-(4-methylpiperazin-1-yl)quinazolin-4(3H)-one] | > 61 | > 3000 | > 61 | > 3000 | 1.9 fold | slight decrease | – |
| CCN1CCC(c2cc(C)c3nc(-c4cc5c(C)nc(C)cn5n4)cc(=O)n3c2)CC1 [SMN-C3, reference compound] | 4 | 459 | 8 | 945 | approximately 22 fold | – | strongly decreased the activity of GALC |

Reference: PMC7562719, “Discovery of a CNS penetrant small molecule SMN2 splicing modulator with improved tolerability for spinal muscular atrophy” (Scientific Reports, 2020)
